Laboratory results from patent US9586896B2, “Nitroxyl donors with improved therapeutic index” (Cardioxyl Pharmaceuticals, Inc., priority 2013, dated 2017).

Legend:
dogs = experiment: 72-hour continuous infusion investigative studies of CXL-1020 in dogs (implanted catheter); assay type: in vivo; details: 72-hour infusion
Experimental: To determine the cause of the inflammation and hind limb swelling, a series of 72-hour continuous infusion investigative studies were conducted over the following 6 months. […] The first site of inflammation, the catheter insertion site, caused the dog hind limb swelling and inflammation observed in the early-terminated follow-up study. Increasing infusate pH from 4 to 6 decreased inflammation, improving the inflammatory profile by approximately 3-fold.

[1] = tested on: heart failure canines (microembolization model); experiment: Hemodynamic efficacy in canine microembolization heart failure model; assay type: in vivo, mongrel dogs; details: 3 or 10 μg/kg/min infusion, FIG. 3
Experimental: Heart failure was produced using healthy, conditioned, purpose-bred mongrel dogs (20-26 kg) using a sequential microembolization model. Coronary microembolization was performed until LV-ejection fraction (determined angiographically under anesthesia) was approximately 30% or lower. Two weeks were then provided after the last microembolization to ensure stabilization of each animal prior to initiating experiments.
An initial dose-finding study (2-100 μg/kg/min for 40 min) was performed in 3 dogs to identify therapeutically relevant doses of a compound of formula (1). […] Only one dose was studied on a given day, the other at least one-week later, and the order randomized. […]
LV end-systolic volume (ESV) and end-diastolic volumes (EDV) were calculated from ventriculograms using the area-length method. […] LV fractional area of shortening (FAS) was measured from LV short axis view at the level of papillary muscles obtained from 2-dimensional echocardiograms. Measured indexes of LV diastolic function included deceleration time of mitral inflow velocity (DT), ratio of the integral of early mitral inflow velocity (Ei) to velocity during atrial contraction (Ai) (Ei/Ai) and LV end-diastolic circumferential wall stress (EDWS).
Measurements of myocardial oxygen consumption were performed at baseline and at 4 hours after 10 μg/kg/min infusion. […] Oxygen content was determined with a hemoximeter. […]

Row | SMILES | improvement of the inflammatory profile on increasing infusate pH from 4 to 6 (dogs) | dose rates at which significant undesirable side effects were still demonstrated (dogs; infusate pH 6) | dose rates causing clinical pathology changes consistent with an inflammatory process (dogs; pH 4 formulation, 1:1 molar CXL-1020:CAPTISOL in 5% dextrose) | hemodynamic activity relative to CXL-1020 [1]
1 | CS(=O)(=O)c1ccccc1S(=O)(=O)NO [CXL-1020, N-hydroxy-2-methanesulfonylbenzene-1-sulfonamide] | approximately 3 fold | greater than or equal to 3 μg/kg/min | greater than or equal to 0.03 μg/kg/min | –
2 | Cc1ccc(S(=O)(=O)NO)o1 [Compound (1), N-Hydroxy-5-methylfuran-2-sulfonamide] | – | – | – | comparable hemodynamic activity to CXL-1020
